Results from US12181483B2, “Kit comprising antibody binding acrolein-protein conjugate for diagnosing nephropathy” (National Yang Ming Chiao Tung University, priority 2022, dated 2024).

Key:
mice = experiment: Acrolein-treated animal model (oral gavage) compared with vehicle control: glucose handling, renal function, kidney histology; type: in vivo
Method: To investigate the role of acrolein in the pathogenesis of diabetic nephropathy (DN), we compared the renal function of HFD/STZ-induced DN mice and mice treated with acrolein (2.5 mg/kg, p.o.) as shown in FIG. 2A.
We further explored the pathological abnormalities in HFD/STZ-induced DN mice and acrolein-treated mice.

[1] = tested on: acrolein-modified BSA (Acr-BSA) or acrolein-modified OVA (Acr-OVA); experiment: ELISA of hybridoma clones / purified Acr-PC antibody against acrolein-modified proteins; type: binding
Method: Monoclonal antibody preparation. Female BALB/c mice were immunized three times with the acrolein-treated ovalbumin (Acr-OVA). Spleen cells from the immunized mice were fused with NS0 murine myeloma cells and cultured in a hypoxantineyamethopterinythymidine selection medium. Culture supernatants of the hybridoma were screened using an ELISA assay, pairs of wells in the microtiter plates on which acrolein-treated BSA (Acr-BSA) was absorbed. After being incubated with 100 μl of hybridoma supernatants and washed with Tris-buffered saline (TBS) containing 0.05% Tween 20 (TBST), the wells were incubated with HRP-conjugated goat anti-mouse IgG, followed by a substrate solution containing TMB. Hybridoma cells corresponding to supernatants that were positive on Acr-BSA or Acr-OVA and negative on BSA or OVA were then cloned by limiting dilutions. After the repeated screening, five clones were obtained. […] After antibody purification from hybridoma clone #5, we confirmed the specificity and examined the antibody titer using a similar ELISA assay described above.

[2] = mice kidney, acrolein group vs control group (FIG. 2I)
[3] = mice, acrolein group vs control group (FIG. 2I)
[4] = antibody purified from hybridoma clone #5 (FIG. 3B)

C=CC=O [acrolein]
collagen fiber content and degree of fibrosis, Sirius red staining (mice; [2]): increased evidently
positive immunohistochemical staining for Acr-PC in the glomeruli and renal tubules (mice; [2]): significantly increased
insulin intolerance, insulin tolerance tests (ITT) (mice; mice, acrolein 2.5 mg/kg p.o., 16 weeks, severity not as high as in HFD/STZ mice (FIGS. 2D-E)): induced insulin intolerance
blood glucose (fasting plasma glucose) (mice; mice, acrolein 2.5 mg/kg p.o., oral gavage for 16 weeks, vs control group (FIG. 2B)): did not increase blood glucose
kidney histology, H&E staining (mice; [3]): disorderly, inflammatory cell infiltration in the interstitium and vacuolar lesion in the epithelial cells
kidney histology, PAS staining (mice; [3]): glomerular mesangium expansion and extracellular matrix deposition
urine albumin/creatinine ratio (UACR) (mice; mice, oral gavage of acrolein for 12 weeks (FIG. 2F)): increased UACR, although not significantly
urine albumin/creatinine ratio (UACR) (mice; mice, oral gavage of acrolein for 16 weeks, vs control group (FIG. 2F)): significant increase
uric acid (UA) (mice; mice, oral gavage of acrolein for 16 weeks, vs control group (FIG. 2G)): significant increase
blood urea nitrogen (BUN) (mice; mice, oral gavage of acrolein for 16 weeks, vs control group (FIG. 2H)): significant increase

B1: clone #5: monoclonal antibody purified from hybridoma clone #5 recognizing acrolein-protein conjugate; heavy chain SEQ ID NO:1, light chain SEQ ID NO:2 (antibody, listed as Mus musculus, V domains shown)
VH: QVQLQESGAELARPGASVRLSCKASGNIFPDHSINWVKQRTGQGLEWIGEIFHGSGNTYYNEKFKGKATLTADKSSTTVYLQLTSLTSEDSAVYFCARWVYGSSFFDVWGAGTTVTVSSAKTTPPSVYPLAP
VL: DIVLTQTPASLAVSLGQTITIFCRASESVEYYGTNLMQWYQQKPGQPPRVLIYGASNVESGVPARFSGSGSGTDFSLNILPVEEDDIAMYFCQQSRKVPWTFGGGTKLEIKRADAAPTV
antibody titer in ELISA [1, 4]: high
specificity in ELISA [1, 4]: high specificity
recognition of Acr-BSA or Acr-OVA in ELISA ([1]; hybridoma supernatant, among five clones (#1 to #5) (FIG. 3A)): most distinctive recognition of Acr-BSA or Acr-OVA
